Values of other authors in publication PMC8391922, “The Combined Effect of Branching and Elongation on the Bioactivity Profile of Phytocannabinoids. Part I: Thermo-TRPs” (Biomedicines, 2021).
“And” between values parts separate entries of the source, which are not always exact repeats. Equal values may be shown once. Read-outs that look alike come from different tables or passages of the source.

Legend:
rat TRPA1 = target: T1, rat TRPA1 (Rattus norvegicus, UniProt Q6RI86); design: method as in PMID 21175579; settings: cited from earlier work; for TRPA1 Efficacy (%ITC 100 μM): percentage of the effect of 100 μM allylisothiocyanate
T1 construct: expressed in transfected cells; host or cells: HEK-293

human TRPV1 = target: T2, human TRPV1 (Homo sapiens, UniProt Q8NER1); design: method as in PMID 21175579; settings: cited from earlier work; for TRPV1 Efficacy (% IM 4 μM): percentage of the response to ionomycin 4 μM
T2 construct: expressed in transfected cells; host or cells: HEK-293

rat TRPM8 = target: T3, rat TRPM8 (Rattus norvegicus, UniProt Q8R455); design: method as in PMID 21175579
T3 construct: expressed in transfected cells; host or cells: HEK-293

rat TRPV2 = target: T4, rat TRPV2 (Rattus norvegicus, UniProt Q9WUD2); design: method as in PMID 21175579, PMID 21726418; settings: cited from earlier work; for TRPV2 Efficacy (% IM 4 μM): percentage of the response to ionomycin 4 μM; for IC50: against agonist CBD 2 μM
T4 construct: expressed in transfected cells; host or cells: HEK-293
T4 sequence (Q9WUD2 1-761): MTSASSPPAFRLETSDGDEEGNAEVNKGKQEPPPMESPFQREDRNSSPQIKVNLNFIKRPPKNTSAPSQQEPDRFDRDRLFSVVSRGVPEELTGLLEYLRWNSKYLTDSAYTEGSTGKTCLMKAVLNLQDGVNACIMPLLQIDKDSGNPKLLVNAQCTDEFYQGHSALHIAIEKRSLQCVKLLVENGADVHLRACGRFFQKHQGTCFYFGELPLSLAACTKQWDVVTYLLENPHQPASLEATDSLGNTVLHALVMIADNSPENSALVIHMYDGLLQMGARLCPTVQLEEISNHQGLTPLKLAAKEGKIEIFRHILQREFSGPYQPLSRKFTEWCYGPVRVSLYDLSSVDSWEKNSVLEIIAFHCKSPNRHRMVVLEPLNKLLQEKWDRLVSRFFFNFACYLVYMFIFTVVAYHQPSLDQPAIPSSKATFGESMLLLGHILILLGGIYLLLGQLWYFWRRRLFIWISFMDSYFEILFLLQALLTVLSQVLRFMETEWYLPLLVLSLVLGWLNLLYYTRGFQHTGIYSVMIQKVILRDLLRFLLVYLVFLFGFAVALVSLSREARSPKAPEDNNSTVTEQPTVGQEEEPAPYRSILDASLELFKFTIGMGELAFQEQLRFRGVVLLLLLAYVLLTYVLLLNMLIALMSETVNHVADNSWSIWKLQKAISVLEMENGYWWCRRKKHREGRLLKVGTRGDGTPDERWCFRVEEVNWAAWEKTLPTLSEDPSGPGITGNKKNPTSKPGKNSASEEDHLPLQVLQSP

rat TRPV3 = target: T5, rat TRPV3 (Rattus norvegicus, UniProt Q4QYD9); design: method as in PMID 21175579, PMID 21726418
T5 construct: expressed in transfected cells; host or cells: HEK-293
T5 sequence (Q4QYD9 1-791): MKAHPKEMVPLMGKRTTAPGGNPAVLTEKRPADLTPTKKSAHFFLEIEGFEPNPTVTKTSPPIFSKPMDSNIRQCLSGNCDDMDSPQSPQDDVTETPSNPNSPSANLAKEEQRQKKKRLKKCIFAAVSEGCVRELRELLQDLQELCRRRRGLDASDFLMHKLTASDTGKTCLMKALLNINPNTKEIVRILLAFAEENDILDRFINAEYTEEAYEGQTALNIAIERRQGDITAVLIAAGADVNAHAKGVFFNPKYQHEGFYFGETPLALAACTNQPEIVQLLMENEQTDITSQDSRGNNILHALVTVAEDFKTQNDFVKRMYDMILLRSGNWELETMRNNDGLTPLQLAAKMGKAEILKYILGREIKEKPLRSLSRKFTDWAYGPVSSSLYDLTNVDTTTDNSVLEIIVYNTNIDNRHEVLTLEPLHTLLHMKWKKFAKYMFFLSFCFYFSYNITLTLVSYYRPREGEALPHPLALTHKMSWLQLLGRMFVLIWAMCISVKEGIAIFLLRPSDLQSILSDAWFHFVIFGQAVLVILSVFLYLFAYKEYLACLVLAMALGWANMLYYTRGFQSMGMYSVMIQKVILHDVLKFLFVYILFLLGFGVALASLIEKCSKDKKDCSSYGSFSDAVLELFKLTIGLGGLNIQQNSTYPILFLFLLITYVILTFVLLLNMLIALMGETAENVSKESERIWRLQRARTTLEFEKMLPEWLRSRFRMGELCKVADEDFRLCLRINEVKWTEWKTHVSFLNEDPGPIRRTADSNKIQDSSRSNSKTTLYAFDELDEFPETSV

rat TRPV4 = target: T6, rat TRPV4 (Rattus norvegicus, UniProt Q9ERZ8); design: method as in PMID 21175579, PMID 21726418
T6 construct: expressed in transfected cells; host or cells: HEK-293

[1] = percentage of the response to ionomycin 4 μM; cited from earlier work
[2] = read-out: TRPV3 Potency EC50; half-maximal increase in [Ca2+]i; cited from earlier work
[3] = read-out: TRPV4 Potency EC50; half-maximal increase in [Ca2+]i; cited from earlier work

T2 sequence (Q8NER1 whole entry): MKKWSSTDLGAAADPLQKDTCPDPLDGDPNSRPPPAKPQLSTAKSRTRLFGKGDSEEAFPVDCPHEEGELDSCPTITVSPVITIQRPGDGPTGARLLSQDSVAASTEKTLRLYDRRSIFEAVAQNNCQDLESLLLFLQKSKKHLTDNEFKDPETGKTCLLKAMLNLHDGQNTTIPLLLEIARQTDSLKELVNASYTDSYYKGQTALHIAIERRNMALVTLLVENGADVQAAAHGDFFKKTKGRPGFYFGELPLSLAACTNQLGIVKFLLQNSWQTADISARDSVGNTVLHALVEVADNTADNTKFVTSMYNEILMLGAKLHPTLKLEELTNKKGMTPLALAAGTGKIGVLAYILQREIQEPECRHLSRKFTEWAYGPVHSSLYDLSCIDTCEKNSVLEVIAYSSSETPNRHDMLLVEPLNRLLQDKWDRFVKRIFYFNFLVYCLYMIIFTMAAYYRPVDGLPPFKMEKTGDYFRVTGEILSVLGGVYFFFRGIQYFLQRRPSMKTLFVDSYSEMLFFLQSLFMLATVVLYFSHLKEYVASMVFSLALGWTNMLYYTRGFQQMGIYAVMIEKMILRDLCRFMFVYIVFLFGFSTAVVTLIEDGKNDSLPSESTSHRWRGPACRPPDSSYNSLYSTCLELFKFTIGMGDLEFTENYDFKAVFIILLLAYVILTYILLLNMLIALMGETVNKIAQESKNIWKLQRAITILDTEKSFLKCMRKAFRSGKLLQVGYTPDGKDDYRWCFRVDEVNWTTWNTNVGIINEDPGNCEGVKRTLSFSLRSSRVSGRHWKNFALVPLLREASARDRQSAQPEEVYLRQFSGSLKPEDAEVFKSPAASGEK
T6 sequence (Q9ERZ8 whole entry): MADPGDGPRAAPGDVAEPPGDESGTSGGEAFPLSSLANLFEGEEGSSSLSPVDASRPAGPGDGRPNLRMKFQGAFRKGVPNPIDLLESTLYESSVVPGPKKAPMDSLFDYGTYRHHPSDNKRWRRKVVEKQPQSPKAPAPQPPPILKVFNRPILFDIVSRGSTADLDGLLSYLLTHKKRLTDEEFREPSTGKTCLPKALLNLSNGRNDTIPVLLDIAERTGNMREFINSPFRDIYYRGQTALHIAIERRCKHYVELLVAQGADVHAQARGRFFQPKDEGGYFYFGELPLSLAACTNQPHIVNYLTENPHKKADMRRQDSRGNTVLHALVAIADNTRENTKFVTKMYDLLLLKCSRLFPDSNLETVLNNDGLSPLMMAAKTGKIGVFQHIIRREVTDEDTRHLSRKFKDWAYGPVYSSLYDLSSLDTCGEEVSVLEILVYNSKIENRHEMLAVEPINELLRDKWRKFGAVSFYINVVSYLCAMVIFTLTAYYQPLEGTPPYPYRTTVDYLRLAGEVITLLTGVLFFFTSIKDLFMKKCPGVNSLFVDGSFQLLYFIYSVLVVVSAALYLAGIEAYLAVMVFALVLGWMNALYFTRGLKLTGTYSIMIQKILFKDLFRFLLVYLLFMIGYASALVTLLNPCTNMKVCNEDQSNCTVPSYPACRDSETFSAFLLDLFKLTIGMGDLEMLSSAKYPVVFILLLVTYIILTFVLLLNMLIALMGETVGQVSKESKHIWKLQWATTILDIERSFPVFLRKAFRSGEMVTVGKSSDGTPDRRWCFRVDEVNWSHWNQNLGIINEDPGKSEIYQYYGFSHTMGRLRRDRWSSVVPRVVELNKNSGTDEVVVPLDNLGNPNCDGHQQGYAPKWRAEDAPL
T1 sequence (Q6RI86 whole entry): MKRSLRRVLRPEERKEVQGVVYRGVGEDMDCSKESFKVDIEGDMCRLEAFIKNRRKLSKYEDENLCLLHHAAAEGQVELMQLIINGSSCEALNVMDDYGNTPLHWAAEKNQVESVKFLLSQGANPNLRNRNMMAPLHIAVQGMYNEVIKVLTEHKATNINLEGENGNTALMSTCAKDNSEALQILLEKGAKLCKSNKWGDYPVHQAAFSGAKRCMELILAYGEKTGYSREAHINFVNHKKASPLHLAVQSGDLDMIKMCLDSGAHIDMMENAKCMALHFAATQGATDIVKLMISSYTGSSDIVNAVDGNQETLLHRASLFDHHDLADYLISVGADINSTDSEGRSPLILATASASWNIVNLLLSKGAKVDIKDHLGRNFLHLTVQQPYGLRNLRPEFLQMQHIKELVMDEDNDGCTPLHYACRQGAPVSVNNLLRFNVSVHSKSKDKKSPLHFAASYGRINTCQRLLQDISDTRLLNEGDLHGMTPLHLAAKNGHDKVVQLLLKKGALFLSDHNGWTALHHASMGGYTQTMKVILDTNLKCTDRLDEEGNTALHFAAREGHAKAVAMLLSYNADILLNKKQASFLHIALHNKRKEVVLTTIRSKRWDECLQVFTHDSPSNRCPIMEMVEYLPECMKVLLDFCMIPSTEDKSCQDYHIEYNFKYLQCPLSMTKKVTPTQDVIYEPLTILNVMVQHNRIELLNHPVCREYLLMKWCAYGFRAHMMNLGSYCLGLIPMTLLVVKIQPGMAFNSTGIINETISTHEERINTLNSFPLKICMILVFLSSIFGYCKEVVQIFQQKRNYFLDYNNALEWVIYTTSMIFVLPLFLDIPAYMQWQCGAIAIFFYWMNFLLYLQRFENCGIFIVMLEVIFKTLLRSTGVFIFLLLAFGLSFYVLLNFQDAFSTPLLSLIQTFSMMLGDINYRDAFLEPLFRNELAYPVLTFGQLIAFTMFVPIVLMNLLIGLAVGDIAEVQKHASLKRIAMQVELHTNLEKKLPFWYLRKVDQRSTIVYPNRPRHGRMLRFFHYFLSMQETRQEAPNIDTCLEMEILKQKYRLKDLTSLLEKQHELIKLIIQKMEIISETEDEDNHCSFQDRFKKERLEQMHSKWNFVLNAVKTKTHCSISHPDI
T3 sequence (Q8R455 whole entry): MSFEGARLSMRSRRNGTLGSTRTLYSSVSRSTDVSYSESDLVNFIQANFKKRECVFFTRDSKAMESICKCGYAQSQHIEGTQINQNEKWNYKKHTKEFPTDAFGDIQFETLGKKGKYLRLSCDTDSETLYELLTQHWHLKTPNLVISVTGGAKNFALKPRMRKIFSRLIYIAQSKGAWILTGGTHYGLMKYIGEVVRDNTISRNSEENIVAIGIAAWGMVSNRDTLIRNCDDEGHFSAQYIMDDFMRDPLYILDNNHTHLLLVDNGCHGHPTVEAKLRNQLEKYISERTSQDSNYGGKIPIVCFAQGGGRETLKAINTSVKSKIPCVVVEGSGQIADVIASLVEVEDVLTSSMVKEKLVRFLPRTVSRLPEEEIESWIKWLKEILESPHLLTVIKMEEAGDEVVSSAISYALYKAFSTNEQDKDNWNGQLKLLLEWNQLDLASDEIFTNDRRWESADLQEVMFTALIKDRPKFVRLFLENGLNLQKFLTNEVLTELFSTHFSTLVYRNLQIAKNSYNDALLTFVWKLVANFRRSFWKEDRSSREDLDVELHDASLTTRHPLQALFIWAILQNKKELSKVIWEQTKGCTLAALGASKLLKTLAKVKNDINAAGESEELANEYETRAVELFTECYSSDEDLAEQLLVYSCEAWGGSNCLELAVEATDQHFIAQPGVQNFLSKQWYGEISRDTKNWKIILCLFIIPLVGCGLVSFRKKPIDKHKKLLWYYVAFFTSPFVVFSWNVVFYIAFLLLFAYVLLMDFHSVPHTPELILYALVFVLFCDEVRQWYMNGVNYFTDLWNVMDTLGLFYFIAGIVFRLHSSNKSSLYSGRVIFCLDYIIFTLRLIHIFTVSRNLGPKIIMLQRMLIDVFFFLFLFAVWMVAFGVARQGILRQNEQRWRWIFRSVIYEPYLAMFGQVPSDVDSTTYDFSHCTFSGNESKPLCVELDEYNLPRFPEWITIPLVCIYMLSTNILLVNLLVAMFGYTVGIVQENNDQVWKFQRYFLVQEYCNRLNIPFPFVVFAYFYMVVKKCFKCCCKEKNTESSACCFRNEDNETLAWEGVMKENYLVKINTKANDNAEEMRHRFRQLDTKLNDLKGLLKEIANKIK

For `CCCCCc1cc(O)c2c(c1)OC(C)(C)[C@@H]1CC=C(C)C[C@@H]21` [6a, Δ^8-tetrahydrocannabinol], the “TRPA1 Efficacy (%ITC 100 μM)” value (rat TRPA1) is listed as 117.0 ± 12.0%, the EC50 (rat TRPA1; read-out: TRPA1 Potency EC50, half-maximal increase in [Ca2+]i) is listed as 0.23 µM and the “TRPV1 Efficacy (% IM 4 μM)” value (human TRPV1) is listed as < 10%. The IC50 (rat TRPM8; read-out: IC50 TRPM8; against agonist icilin 0.25 μM; cited from earlier work) was 0.16 µM, the “TRPV2 Efficacy (% IM 4 μM)” value (rat TRPV2) was 53.0 ± 1.4% and 39.9 ± 2.1% and the IC50 (rat TRPV2; read-out: IC50 TRPV2) was 0.8 µM. The “TRPV3 Efficacy (% IM 4 μM)” value (rat TRPV3; [1]) was 18.2 ± 1.0% and 13.1 ± 2.4%, the EC50 (rat TRPV3; [2]) was 9.5 µM and 5.3 µM and the “TRPV4 Efficacy (% IM 4 μM)” value (rat TRPV4; [1]) was <10 <10% and 15.3 ± 1.5%. The EC50 (rat TRPV4; [3]) was 16.1 ± 4.5 µM.
For `CCCCCc1cc(O)c(C/C=C(\C)CCC=C(C)C)c(O)c1` [7a, cannabigerol], the “TRPA1 Efficacy (%ITC 100 μM)” value (rat TRPA1) is listed as 99.9 ± 1.1%, the “IC50 TRPV1” value (human TRPV1; against agonist capsaicin 0.1 μM) is listed as “sub/low micromolar range” and the “TRPV1 Efficacy (% IM 4 μM)” value (human TRPV1) is listed as 33.8 ± 2.3%. For the same molecule, the “TRPV2 Efficacy (% IM 4 μM)” value (rat TRPV2) was 73.6 ± 1.2%, the IC50 (rat TRPV3; against agonist thymol 100 μM; read-out: IC50 TRPV3; cited from earlier work) was > 50 µM and the EC50 (rat TRPV3; half-maximal increase in [Ca2+]i; read-out: TRPV3 Potency EC50 (converted); cited from earlier work) was 1 µM. For the same molecule, the “TRPV3 Efficacy (% IM 4 μM)” value (rat TRPV3; [1]) was 18.5 ± 0.7%, the “TRPV4 Efficacy (% IM 4 μM)” value (rat TRPV4; [1]) was 23.7 ± 1.8% and the IC50 (rat TRPV4; read-out: IC50 TRPV4; against agonist GSK1016790A 10 nM; cited from earlier work) was 1.3 µM. The EC50 (rat TRPV4; [3]) was 5.1 µM.
In the case of `CCCCCc1cc(O)c2c(c1)OC(C)(CCC=C(C)C)C=C2` (stereo not drawn) [8a, cannabichromene], the IC50 (rat TRPA1; against agonist AITC 100 μM, read-out: IC50 TRPA1 (converted)) is listed as 0.37 µM, the “TRPA1 Efficacy (%ITC 100 μM)” value (rat TRPA1) is listed as 119.4 ± 3.1% and the IC50 (human TRPV1; against agonist capsaicin 0.1 μM, read-out: IC50 TRPV1) is listed as > 50 µM. For the same molecule, the “TRPV1 Efficacy (% IM 4 μM)” value (human TRPV1) was < 10%, the IC50 (rat TRPM8; against agonist icilin 0.25 μM; read-out: IC50 TRPM8; cited from earlier work) was 40.7 µM and the IC50 (rat TRPV2; read-out: IC50 TRPV2 (converted)) was 6.5 µM. The “TRPV2 Efficacy (% IM 4 μM)” value (rat TRPV2) was < 10%, the “TRPV3 Efficacy (% IM 4 μM)” value (rat TRPV3; [1]) was 20.2 ± 0.4% and the IC50 (rat TRPV3; read-out: IC50 TRPV3; against agonist thymol 100 μM; cited from earlier work) was > 100 µM. For the same molecule, the EC50 (rat TRPV3; [2]) was 1.9 µM, the IC50 (rat TRPV4; against agonist GSK1016790A 10 nM; read-out: IC50 TRPV4; cited from earlier work) was 9.9 µM and the EC50 (rat TRPV4; half-maximal increase in [Ca2+]i; read-out: TRPV4 Potency EC50; cited from earlier work) was 0.6 µM. The “TRPV4 Efficacy (% IM 4 μM)” value (rat TRPV4; [1]) was 22.9 ± 1.2%.
